Results from patent US20180289957A1, “REMINERALISATION OF CALCIFIED TISSUE” (Reminova Ltd., priority 2008, published 2018).

Test system: extracted incisor tooth
Assay: Tooth-whitening effect on extracted incisor tooth, images before and after treatment
Conditions: 2 minutes pre-conditioning with solution, no remineralising agent
Description: This image was taken prior to any treatment being carried out.
The dark discolourations in the enamel of the crown of the tooth adjacent to the cavity have also disappeared.

In the case of `OCl` [hypochlorite, sodium hypochlorite], the “tooth discolouration, difference versus before treatment” value is reported as “very little difference”.
